Patent EP4741389A1, “KAT6 INHIBITOR” (Shanghai Qilu Pharmaceutical Research and Development …, priority 2023, dated 2025)
pIC50: −log10 of the molar value.

Assays:
ZR-75-1 cells = assay: ZR-75-1 cell proliferation assay (CellTiter-Glo); assay type: cell-based; details: Homo sapiens, ZR-75-1, 240 h, total culture period of 10 days, read-out: ZR-75-1 Proliferation Inhibition IC50
Procedure: II. ZR-75-1 cell proliferation assay
• 1. ZR-75-1 cells were seeded in 96-well plates and cultured overnight in an incubator at 37°C & 5% CO2. • 2. Compounds were diluted using culture medium and added to the 96-well plates. The plates were placed back into the incubator for continued culture. Every 5 days, the cells were trypsinized, counted, and re-seeded. After the cells had fully adhered, compounds were added again for incubation, for a total culture period of 10 days. • 3. After the culture period, 60 µL of CellTiter-Glo reagent (Promega, G7573) was added to each well. The plates were protected from light and shaken for 2 minutes to lyse the cells, followed by further incubation at room temperature, protected from light, for 30 minutes. • 4. Luminescence signals were read using a BMG PHERAstar FSX. IC50 values were calculated by nonlinear regression using a four-parameter logistic equation in GraphPad Prism 8 software.

KAT6B = target: T1, KAT6B (Homo sapiens, UniProt Q8WYB5); assay: KATs acetyltransferase enzyme activity assay (TR-FRET), KAT6B; assay type: biochemical; details: Biotin-H3 (1-21) and AcCOA, 90 minutes at room temperature
T1 construct: purchased Active Motif 81224
Procedure: (§1) I. KATs acetyltransferase enzyme activity assay
(§2) • 1. The inhibitory effect of compounds on the acetyltransferase activity of KATs was evaluated using the Time-Resolved Fluorescence Resonance Energy Transfer (TR-FRET) assay. The assay was conducted in 384-well plates using Tris-HCl buffer. • 2. Compounds were diluted in DMSO and transferred to 384-well plates. Enzyme solutions (KAT6: active motif (kit), 81223; KAT6B: active motif, 81224; KAT5: SignalChem, K314-380G; KAT7: ICE, S2210F-H21HF; KAT8: Active motif, 81225) were added and the mixture was incubated at room temperature for 15 minutes. • 3. Subsequently, 2.5 µL of a mixture containing KAT6A/KAT6B: Biotin-H3 (1-21, Genscript, C6829GL060) or KAT5/7/8: Bio-H4 (1-25, Genscript, C736BGL100) AcCOA (Sigma, A2056) was added, and the reaction proceeded at room temperature for 90 minutes. • 4. After the reaction, a detection mixture containing Europium-anti-acetyl-Histone H4 Lysine (H4Kac pan) Antibody (Perkin Elmer, TRF0412) and LANCE Ultra ULight™-Streptavidin in LANCE™ Detection buffer (10x) (Perkin Elmer, CR97-100) was added, followed by incubation at room temperature for 60 minutes. • 5. HTRF signals were measured using a BMG PHERAstar FSX (Ratio: 665nm/620nm). IC50 values were calculated by nonlinear regression using a four-parameter logistic equation in GraphPad Prism 8 software.

[1] = system: ZR-75-1 H3K23 Acetylation; assay: Histone H3 acetylation assay (H3K23 acetylation in ZR-75-1 cells); assay type: cell-based; details: Homo sapiens, 72 hours incubation, Odyssey CLx fluorescence, read-out: ZR-75-1 H3K23 Acetylation Inhibition IC50
Procedure: III. Histone H3 acetylation assay
• 1. ZR-75-1 cells were seeded at 5000 cells/40 µL per well in 384-well plates and cultured overnight in an incubator at 37°C & 5% CO2. • 2. 40 nL of serially diluted compounds were added to the 384-well plates, followed by further incubation for 72 hours. • 3. The supernatant was discarded, and 8 w/v% paraformaldehyde (final concentration was 4 w/v%) was added directly to the wells to fix the cells at room temperature. • 4. After washing twice with PBS, a permeabilization agent (40 µL of methanol) was added and incubated for 10 minutes to permeabilize the cell membranes. • 5. After washing twice with PBS, a blocking buffer was added and incubated at room temperature for 1 hour for blocking. • 6. The blocking buffer was discarded, and 20 µL of primary antibodies (recombinant Anti-Histone H3 (acetyl K23) antibody and Anti-Histone H4 antibody) diluted in blocking buffer (1:1000 by volume dilution) were added, followed by incubation at 4°C overnight. • 7. After washing three times with PBST (0.05 vol% Tween-20 in PBS), 20 µL of fluorescent secondary antibodies (IRDye 680RD Goat anti-MOUSE, Licor, 926-68070; IRDye 800CW Goat anti-Rabbit, Licor, 926-32211) diluted in blocking buffer (1:2000 by volume dilution) were added, followed by incubation at room temperature, protected from light, for 1 hour. Then, the plates were washed three times with PBST. • 8. Scanning was performed using an Odyssey CLx, and the fluorescence signal value for each well was quantified. IC50 values were calculated by nonlinear regression using a four-parameter logistic equation in GraphPad Prism 8 software.

KAT6A = target: T2, KAT6A (Homo sapiens, UniProt Q92794); assay: KATs acetyltransferase enzyme activity assay (TR-FRET), KAT6A; assay type: biochemical; details: Biotin-H3 (1-21) and AcCOA, 90 minutes at room temperature
T2 construct: purchased Active Motif 81223
Procedure: as §1
as §2, with “Enzyme solutions (KAT6: active motif (kit), 81223; KAT6B: active motif, 81224; KAT5: SignalChem, K314-380G; KAT7: ICE, S2210F-H21HF; KAT8: Active motif, 81225) were added and the mixture was incubated at room temperature for 15 minutes. • 3.” left out, “HTRF signals were measured using a BMG PHERAstar FSX (Ratio: 665nm/620nm).” left out

T1 sequence (Q8WYB5 whole entry): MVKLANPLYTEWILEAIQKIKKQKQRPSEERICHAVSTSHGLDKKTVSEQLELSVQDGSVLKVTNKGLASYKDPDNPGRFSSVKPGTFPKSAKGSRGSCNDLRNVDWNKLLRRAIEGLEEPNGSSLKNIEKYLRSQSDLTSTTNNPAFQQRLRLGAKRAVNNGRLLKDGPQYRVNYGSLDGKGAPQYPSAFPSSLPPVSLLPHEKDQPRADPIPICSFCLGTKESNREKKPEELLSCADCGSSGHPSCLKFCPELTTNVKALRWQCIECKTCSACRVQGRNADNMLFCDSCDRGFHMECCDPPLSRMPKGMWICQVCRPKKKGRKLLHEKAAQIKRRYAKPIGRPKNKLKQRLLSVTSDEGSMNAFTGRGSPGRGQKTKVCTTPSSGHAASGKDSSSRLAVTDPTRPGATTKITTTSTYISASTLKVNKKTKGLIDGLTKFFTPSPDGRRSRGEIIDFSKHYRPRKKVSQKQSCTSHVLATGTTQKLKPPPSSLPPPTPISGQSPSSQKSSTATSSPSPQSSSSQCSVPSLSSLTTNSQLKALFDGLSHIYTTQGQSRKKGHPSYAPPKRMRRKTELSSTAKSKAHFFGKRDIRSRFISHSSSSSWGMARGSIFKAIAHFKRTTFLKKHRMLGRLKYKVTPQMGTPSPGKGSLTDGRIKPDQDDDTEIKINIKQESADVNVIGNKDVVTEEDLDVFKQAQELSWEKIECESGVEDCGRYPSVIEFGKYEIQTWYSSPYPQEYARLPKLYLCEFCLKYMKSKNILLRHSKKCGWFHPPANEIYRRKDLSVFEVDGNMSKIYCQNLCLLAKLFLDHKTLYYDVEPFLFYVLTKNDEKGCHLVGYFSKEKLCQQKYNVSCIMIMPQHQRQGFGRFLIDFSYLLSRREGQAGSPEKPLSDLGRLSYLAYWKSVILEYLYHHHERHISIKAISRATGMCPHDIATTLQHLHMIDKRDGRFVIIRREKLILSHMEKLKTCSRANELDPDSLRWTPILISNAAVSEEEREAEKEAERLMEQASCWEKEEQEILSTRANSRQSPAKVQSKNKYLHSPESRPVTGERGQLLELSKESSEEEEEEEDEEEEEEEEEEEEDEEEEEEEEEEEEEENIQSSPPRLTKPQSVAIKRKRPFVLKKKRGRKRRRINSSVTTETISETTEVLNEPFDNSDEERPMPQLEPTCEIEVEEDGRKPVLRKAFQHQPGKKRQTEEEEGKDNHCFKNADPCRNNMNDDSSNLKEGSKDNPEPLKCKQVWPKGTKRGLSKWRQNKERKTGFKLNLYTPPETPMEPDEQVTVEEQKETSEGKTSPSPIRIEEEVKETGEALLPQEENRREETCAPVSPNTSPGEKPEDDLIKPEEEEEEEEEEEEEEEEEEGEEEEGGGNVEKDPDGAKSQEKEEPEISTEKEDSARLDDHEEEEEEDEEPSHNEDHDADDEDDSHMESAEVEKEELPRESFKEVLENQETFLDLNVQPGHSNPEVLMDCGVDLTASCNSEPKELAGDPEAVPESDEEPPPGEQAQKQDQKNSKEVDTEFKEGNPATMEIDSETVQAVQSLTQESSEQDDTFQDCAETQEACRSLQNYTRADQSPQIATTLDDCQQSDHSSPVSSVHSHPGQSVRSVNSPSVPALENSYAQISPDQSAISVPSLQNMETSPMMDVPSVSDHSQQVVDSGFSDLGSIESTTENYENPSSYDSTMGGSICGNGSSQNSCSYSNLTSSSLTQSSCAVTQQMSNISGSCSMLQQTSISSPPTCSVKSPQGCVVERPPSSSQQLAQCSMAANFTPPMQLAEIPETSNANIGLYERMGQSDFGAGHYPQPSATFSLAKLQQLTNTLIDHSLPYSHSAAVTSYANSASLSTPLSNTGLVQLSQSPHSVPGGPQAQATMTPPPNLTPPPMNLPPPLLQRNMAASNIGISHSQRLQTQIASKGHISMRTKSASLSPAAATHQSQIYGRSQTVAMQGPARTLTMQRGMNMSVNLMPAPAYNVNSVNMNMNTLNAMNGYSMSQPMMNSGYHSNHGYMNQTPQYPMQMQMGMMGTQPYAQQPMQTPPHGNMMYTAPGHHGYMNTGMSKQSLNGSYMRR
T2 sequence (Q92794 488-778 limits assumed): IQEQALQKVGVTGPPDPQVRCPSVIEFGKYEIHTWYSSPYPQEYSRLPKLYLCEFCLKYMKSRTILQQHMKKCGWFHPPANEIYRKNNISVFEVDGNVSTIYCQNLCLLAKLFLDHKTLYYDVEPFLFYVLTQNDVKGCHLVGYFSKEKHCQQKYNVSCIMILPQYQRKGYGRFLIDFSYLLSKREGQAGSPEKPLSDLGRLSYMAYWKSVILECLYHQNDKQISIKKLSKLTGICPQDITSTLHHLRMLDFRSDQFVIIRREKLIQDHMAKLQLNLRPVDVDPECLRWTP

Row | SMILES | pIC50 (KAT6B) | pIC50 [1] | pIC50 (KAT6A) | pIC50 (ZR-75-1 cells)
1 | COc1ccc2c(c1S(=O)(=O)Nc1noc3cc(Cn4cccn4)c(F)c(OC)c13)OCC1CC21 (single isomer, unassigned) [Compound 30-P1] | 8.85 | 9.52 | 8.85 | 10.10
2 | COc1cc2c(NS(=O)(=O)c3c(OC)ccc4c3OCC3CC43)noc2cc1Cn1cccn1 (single isomer, unassigned) [Compound 33] | 8.92 | 9.70 | 8.96 | 10.52
3 | COc1ccc2c(c1S(=O)(=O)Nc1noc3cc(Cn4cccn4)c(F)cc13)OCC1CC21 (single isomer, unassigned) [Compound 34] | 8.66 | 9.40 | 8.92 | 10.40
4 | COc1cc(Cn2cccn2)cc2onc(NS(=O)(=O)c3cccc4c3OCCCO4)c12 [Compound 1, N-(6-((1H-Pyrazol-1-yl)methyl)-4-methoxybenzo[d]isoxazol-3-yl)-3,4-dihydro-2H-benz o[b] [1,4]dioxepine-6-sulfonamide] | 7.09 | 8.05 | 7.89 | 8.17
5 | COc1ccc2c(c1S(=O)(=O)Nc1noc3cc(Cn4cccn4)cc(OC)c13)OCC1CC21 (centres unmarked) [Compound 5, N-(6-((1H-Pyrazol-1-yl)methyl)-4-methoxybenzo[d]isoxazol-3-yl)-5-methoxy-1,1a,2,7b-tetrahydrocyclopropa[c]chromene-4-sulfonamide] | 8.43 | 9.30 | 8.82 | 9.70
6 | COc1ccc2c(c1S(=O)(=O)Nc1noc3cc(Cn4cccn4)cc(OC)c13)OC[C@H]1C[C@@H]21 [Compound 5-P1, (1aS,7bR)-N-(6-((1H-Pyrazol-1-yl)methyl)-4-methoxybenzo[d]isoxazol-3-yl)-5-methoxy-1,1a,2,7b-tetrahydrocyclopropa[c]chromene-4-sulfonamide] | 7.95 | 8.72 | 8.60 | 9.52
7 | COc1cc2c(cc1S(=O)(=O)Nc1noc3cc(Cn4cccn4)cc(OC)c13)C1CC1CO2 (centres unmarked) [Compound 6, N-(6-((1H-Pyrazol-1-yl)methyl)-4-methoxybenzo[d]isoxazol-3-yl)-5-methoxy-1,1a,2,7b-tetrahydrocyclopropa[c] chromene-6-sulfonamide] | 7.93 | 8.28 | 8.89 | 9.22
8 | COc1cc2c(cc1S(=O)(=O)Nc1noc3cc(Cn4cccn4)cc(OC)c13)OCCCO2 [Compound 7, N-(6-((1H-Pyrazol-1-yl)methyl)-4-methoxybenzo[d]isoxazol-3-yl)-8-methoxy-3,4-dihyd ro-2H-benzo[b][1,4]dioxepine-7-sulfonamide] | 7.72 | 8.07 | 8.57 | 8.62

Now from value to compound, other results behind:

Row | pIC50 (KAT6B) | pIC50 [1] | pIC50 (KAT6A) | SMILES | pIC50 (ZR-75-1 cells)
9 | 7.39 | 7.99 | 8.57 | COc1cc2c(cc1S(=O)(=O)Nc1noc3cc(Cn4cccn4)cc(OC)c13)OCCOC2 [Compound 8] | 8.38
10 |  | 7.46 |  | COc1ccc2c(c1S(=O)(=O)Nc1noc3cc(Cn4cccn4)c(OC(F)F)cc13)OCCCO2 [Compound 13, N-(6-((1H-pyrazol-1-yl)methyl)-5-(difluoromethoxy)benzo[d]isoxazol-3-yl)-7-methoxy-3,4-dihydro-2H-benzo [b] [1,4] dioxepine-6-sulfonamide] | 7.85
11 | 7.64 | 8.38 | 8.52 | COc1ccc2c(c1S(=O)(=O)Nc1noc3cc(Cn4cccn4)cc(OC)c13)OCC21COC1 [Compound 49, N-(6-((1H-Pyrazol-1-yl)methyl)-4-methoxybenzo[d]isoxazol-3-yl)-6-methoxy-2H-spiro[benzofuran-3,3'-oxetane]-7-sulfonamide] | 
12 | 7.29 | 8.19 | 8.17 | COc1ccc2c(c1S(=O)(=O)Nc1noc3cc(Cn4cccn4)cc(OC)c13)OC1CC1O2 (centres unmarked) [Compound 50, N-(6-((1H-Pyrazol-1-yl)methyl)-4-methoxybenzo[d]isoxazol-3-yl)-4-methoxy-1a,7a-dihydro-1H-benzo[b]cyclopropa[e][1,4]dioxine-3-sulfonamide] | 
